# Test results reported in patent publication US20260042731A1, “(2,4-DICHLOROPHENOXY)ACETIC ACID ANALOGS” (CORTEVA AGRISCIENCE LLC, priority 2022, published 2026).
# Read-outs that look alike come from different tables or passages of the source.
# Key:
# [1] = test system: Abutilon theophrasti (ABUTH), velvetleaf; test: Postemergence herbicide evaluation, growth of Abutilon theophrasti (ABUTH); assay type: in vivo; settings: Abutilon theophrasti, post-emergence, read-out: AVE. ABUTH
# [2] = test system: Ambrosia artemisiifolia (AMBEL), common ragweed; test: Postemergence herbicide evaluation, growth of Ambrosia artemisiifolia (AMBEL); assay type: in vivo; settings: Ambrosia artemisiifolia, post-emergence, read-out: AVE. AMBEL
# [3] = test system: Amaranthus rudis (AMATA), tall water hemp; test: Postemergence herbicide evaluation, growth of Amaranthus rudis (AMATA); assay type: in vivo; settings: Amaranthus tuberculatus, post-emergence, read-out: Ave. AMATA
# [4] = Volatility of compounds measured by thermogravimetric analysis (TGA); assay type: physicochemical
# [5] = test system: Chenopodium album (CHEAL), common lambsquarters; test: Postemergence herbicide evaluation, growth of Chenopodium album (CHEAL); assay type: in vivo; settings: Chenopodium album, post-emergence, read-out: Ave. CHEAL
# [6] = test system: glyphosate resistant Conyza canadensis (L.) (ERICA), horseweed; test: Postemergence herbicide evaluation, growth of Conyza canadensis (ERICA); assay type: in vivo; settings: Erigeron canadensis, post-emergence, read-out: Ave. ERICA
# [7] = test system: weeds (ABUTH, AMATA, AMBEL, CHEAL, ERICA); test: Postemergence herbicide evaluation, overall average % weed control across ABUTH, AMATA, AMBEL, CHEAL, ERICA; assay type: in vivo; settings: post-emergence, read-out: Overall Ave % Weed Control
# [8] = 168 h, 280 g ae/ha, 7 DAA, percent reduction in plant size relative to untreated control
# [9] = 168 h, 560 g ae/ha, 7 DAA, percent reduction in plant size relative to untreated control
# [10] = 336 h, 280 g ae/ha, 14 DAA, percent reduction in plant size relative to untreated control
# [11] = 336 h, 560 g ae/ha, 14 DAA, percent reduction in plant size relative to untreated control
# [12] = 504 h, 280 g ae/ha, 21 DAA, percent reduction in plant size relative to untreated control
# [13] = 504 h, 560 g ae/ha, 21 DAA, percent reduction in plant size relative to untreated control
# [14] = 168 h, 280 g ae/ha, 7 DAA, average over the five weeds
# [15] = 168 h, 560 g ae/ha, 7 DAA, average over the five weeds
# [16] = 336 h, 280 g ae/ha, 14 DAA, average over the five weeds
# [17] = 336 h, 560 g ae/ha, 14 DAA, average over the five weeds
# [18] = 504 h, 280 g ae/ha, 21 DAA, average over the five weeds
# [19] = 504 h, 560 g ae/ha, 21 DAA, average over the five weeds
structure (smiles),measurement,setting,value
"N#C/C(=N\OC(=O)COc1ccc(Cl)cc1Cl)c1ccccc1 [Compound A6, N-(2-(2,4-Dichlorophenoxy)acetoxy)benzimidoyl cyanide]",pest or weed control at 280 g/ha,[1]; 168 h,78%
same,pest or weed control at 560 g/ha,[1]; 168 h,90%
same,pest or weed control at 280 g/ha,[1]; 336 h,75%
same,pest or weed control at 560 g/ha,[1]; 336 h,85%
same,pest or weed control at 280 g/ha,[1]; 504 h,80%
same,pest or weed control at 560 g/ha,[1]; 504 h,94%
same,pest or weed control at 280 g/ha,[2]; 168 h,68%
same,pest or weed control at 560 g/ha,[2]; 168 h,70%
same,pest or weed control at 280 g/ha,[2]; 336 h,93%
same,pest or weed control at 560 g/ha,[2]; 336 h,95%
same,pest or weed control at 280 g/ha,[2]; 504 h,98%
same,pest or weed control at 560 g/ha,[2]; 504 h,100%
same,pest or weed control at 280 g/ha,[3]; 168 h,80%
same,pest or weed control at 560 g/ha,[3]; 168 h,75%
same,pest or weed control at 280 g/ha,[3]; 336 h,83%
same,pest or weed control at 560 g/ha,[3]; 336 h,78%
same,pest or weed control at 280 g/ha,[3]; 504 h,73%
same,pest or weed control at 560 g/ha,[3]; 504 h,81%
same,"TGA Data (rate of weight loss, volatility)",[4],7.2 µg/min
same,pest or weed control at 280 g/ha,[5]; 168 h,68%
same,pest or weed control at 560 g/ha,[5]; 168 h,68%
same,pest or weed control at 280 g/ha,[5]; 336 h,83%
same,pest or weed control at 560 g/ha,[5]; 336 h,78%
same,pest or weed control at 280 g/ha,[5]; 504 h,94%
same,pest or weed control at 560 g/ha,[5]; 504 h,73%
same,pest or weed control at 280 g/ha,[6]; 168 h,65%
same,pest or weed control at 560 g/ha,[6]; 168 h,73%
same,pest or weed control at 280 g/ha,[6]; 336 h,88%
same,pest or weed control at 560 g/ha,[6]; 336 h,88%
same,pest or weed control at 280 g/ha,[6]; 504 h,98%
same,pest or weed control at 560 g/ha,[6]; 504 h,98%
same,pest or weed control at 280 g/ha,[7]; 168 h,72%
same,pest or weed control at 560 g/ha,[7]; 168 h,75%
same,pest or weed control at 280 g/ha,[7]; 336 h,84%
same,pest or weed control at 560 g/ha,[7]; 336 h,84%
same,pest or weed control at 280 g/ha,[7]; 504 h,88%
same,pest or weed control at 560 g/ha,[7]; 504 h,89%
"CCOC(=O)C(=NOC(=O)COc1ccc(Cl)cc1Cl)C(=O)OCC [Compound A7, Diethyl 2-((2-(2,4-dichlorophenoxy)acetoxy)imino)malonate]",pest or weed control at 280 g/ha,[1]; [8],75%
same,pest or weed control at 560 g/ha,[1]; [9],88%
same,pest or weed control at 280 g/ha,[1]; [10],83%
same,pest or weed control at 560 g/ha,[1]; [11],89%
same,pest or weed control at 280 g/ha,[1]; [12],92%
same,pest or weed control at 560 g/ha,[1]; [13],94%
same,pest or weed control at 280 g/ha,[2]; [8],63%
same,pest or weed control at 560 g/ha,[2]; [9],70%
same,pest or weed control at 280 g/ha,[2]; [10],83%
same,pest or weed control at 560 g/ha,[2]; [11],95%
same,pest or weed control at 280 g/ha,[2]; [12],92%
same,pest or weed control at 560 g/ha,[2]; [13],98%
same,pest or weed control at 280 g/ha,[3]; [8],73%
same,pest or weed control at 560 g/ha,[3]; [9],78%
same,pest or weed control at 280 g/ha,[3]; [10],83%
same,pest or weed control at 560 g/ha,[3]; [11],88%
same,pest or weed control at 280 g/ha,[3]; [12],90%
same,pest or weed control at 560 g/ha,[3]; [13],88%
same,"TGA Data (rate of weight loss, volatility)",[4],4.7 µg/min
same,pest or weed control at 280 g/ha,[5]; [8],68%
same,pest or weed control at 560 g/ha,[5]; [9],70%
same,pest or weed control at 280 g/ha,[5]; [10],75%
same,pest or weed control at 560 g/ha,[5]; [11],73%
same,pest or weed control at 280 g/ha,[5]; [12],73%
same,pest or weed control at 560 g/ha,[5]; [13],78%
same,pest or weed control at 280 g/ha,[6]; [8],68%
same,pest or weed control at 560 g/ha,[6]; [9],73%
same,pest or weed control at 280 g/ha,[6]; [10],89%
same,pest or weed control at 560 g/ha,[6]; [11],83%
same,pest or weed control at 280 g/ha,[6]; [12],93%
same,pest or weed control at 560 g/ha,[6]; [13],90%
same,pest or weed control at 280 g/ha,[7]; [14],69%
same,pest or weed control at 560 g/ha,[7]; [15],76%
same,pest or weed control at 280 g/ha,[7]; [16],82%
same,pest or weed control at 560 g/ha,[7]; [17],85%
same,pest or weed control at 280 g/ha,[7]; [18],88%
same,pest or weed control at 560 g/ha,[7]; [19],89%
"CC(=O)/C(C)=N/OC(=O)COc1ccc(Cl)cc1Cl [Compound A8, 3-((2-(2,4-Dichlorophenoxy)acetoxy)imino)butan-2-one]",pest or weed control at 280 g/ha,[1]; [8],74%
same,pest or weed control at 560 g/ha,[1]; [9],95%
same,pest or weed control at 280 g/ha,[1]; [10],65%
same,pest or weed control at 560 g/ha,[1]; [11],96%
same,pest or weed control at 280 g/ha,[1]; [12],70%
same,pest or weed control at 560 g/ha,[1]; [13],99%
same,pest or weed control at 280 g/ha,[2]; [8],70%
same,pest or weed control at 560 g/ha,[2]; [9],80%
same,pest or weed control at 280 g/ha,[2]; [10],90%
same,pest or weed control at 560 g/ha,[2]; [11],98%
same,pest or weed control at 280 g/ha,[2]; [12],96%
same,pest or weed control at 560 g/ha,[2]; [13],100%
same,pest or weed control at 280 g/ha,[3]; [8],70%
same,pest or weed control at 560 g/ha,[3]; [9],75%
same,pest or weed control at 280 g/ha,[3]; [10],83%
same,pest or weed control at 560 g/ha,[3]; [11],85%
same,pest or weed control at 280 g/ha,[3]; [12],78%
same,pest or weed control at 560 g/ha,[3]; [13],87%
same,"TGA Data (rate of weight loss, volatility)",[4],1 µg/min
same,pest or weed control at 280 g/ha,[5]; [8],68%
same,pest or weed control at 560 g/ha,[5]; [9],70%
same,pest or weed control at 280 g/ha,[5]; [10],73%
same,pest or weed control at 560 g/ha,[5]; [11],80%
same,pest or weed control at 280 g/ha,[5]; [12],83%
same,pest or weed control at 560 g/ha,[5]; [13],80%
same,pest or weed control at 280 g/ha,[6]; [8],70%
same,pest or weed control at 560 g/ha,[6]; [9],73%
same,pest or weed control at 280 g/ha,[6]; [10],85%
same,pest or weed control at 560 g/ha,[6]; [11],90%
same,pest or weed control at 280 g/ha,[6]; [12],92%
same,pest or weed control at 560 g/ha,[6]; [13],97%
same,pest or weed control at 280 g/ha,[7]; [14],70%
same,pest or weed control at 560 g/ha,[7]; [15],79%
same,pest or weed control at 280 g/ha,[7]; [16],79%
same,pest or weed control at 560 g/ha,[7]; [17],90%
same,pest or weed control at 280 g/ha,[7]; [18],84%
same,pest or weed control at 560 g/ha,[7]; [19],93%
